{
  "source": "patent US20240002428A1",
  "about": "“STORAGE STABLE CAGED HAPTENS” (VENTANA MEDICAL SYSTEMS, INC., priority 2021, published 2024)",
  "assay": "Hydrolytic stability study of caged haptens at elevated temperature (reverse phase HPLC)",
  "format": "physicochemical",
  "conditions": "100 mM PBS (pH 7.2), 37° C. oven, after 50 days of storage",
  "protocol": "To study the hydrolytic stability of caged hapten conjugates having any one of Formulas (IVA), (IVB), or (VA)-(VF) (see FIG. 9) model compounds were subjected to a stability study at elevated temperatures.\nModel compounds tested were the NP hapten with two different caging groups along with caged DIG, as set forth below:\nThe samples of caged NP and caged DIG were stored in 100 mM PBS (pH 7.2) in a 37° C. oven. The buffer and pH were representative of storage conditions for an antibody conjugate. A temperature of 37° C. was chosen to stress the sample and accelerate hydrolytic events. Normal storage conditions or the antibody conjugate were believed to be about 4° C. Aliquots of the samples were removed at regular intervals and tested by reverse phase HPLC on a Waters XBridge column on a Waters Alliance e2695 running Empower 3 (Waters). Each sample HPLC trace was examined for evidence of decaging or other forms of decomposition. […] The caged DIG testing was monitored out to 120 days and <0.5% hydrolysis was still observed at this point.",
  "data": [
    {"molecule": "COc1cc(Cn2nc(C(=O)NCCN)cc2[N+](=O)[O-])cc(OC)c1OCOP(=O)(O)O", "note": "[generation 2 caged-NP]", "values": [
      {"measurement": "hydrolysis (caged hapten hydrolyzed to the native hapten, percentage of the original material)", "value": "~6", "unit": "%"}
    ]},
    {"molecule": "COc1cc(Cn2nc(C(=O)NCCN)cc2[N+](=O)[O-])cc(OC)c1OP(=O)(O)O", "note": "[generation 1 caged-NP]", "values": [
      {"measurement": "hydrolysis (caged hapten hydrolyzed to the native hapten, percentage of the original material)", "value": "~15.5", "unit": "%"}
    ]}
  ]
}
